# Biological target: T1, Coronin 1A (CORO1A) (Homo sapiens, UniProt P31146)
# T1 construct: EGFP-tagged CORO1A overexpressed in HEK 293T cells (lysate)
# Experiment: MST with EGFP-CORO1A cell lysate; supported by CETSA and DARTS in MDA-MB-231 cells
# Type: binding
# T1 sequence (P31146 2-461): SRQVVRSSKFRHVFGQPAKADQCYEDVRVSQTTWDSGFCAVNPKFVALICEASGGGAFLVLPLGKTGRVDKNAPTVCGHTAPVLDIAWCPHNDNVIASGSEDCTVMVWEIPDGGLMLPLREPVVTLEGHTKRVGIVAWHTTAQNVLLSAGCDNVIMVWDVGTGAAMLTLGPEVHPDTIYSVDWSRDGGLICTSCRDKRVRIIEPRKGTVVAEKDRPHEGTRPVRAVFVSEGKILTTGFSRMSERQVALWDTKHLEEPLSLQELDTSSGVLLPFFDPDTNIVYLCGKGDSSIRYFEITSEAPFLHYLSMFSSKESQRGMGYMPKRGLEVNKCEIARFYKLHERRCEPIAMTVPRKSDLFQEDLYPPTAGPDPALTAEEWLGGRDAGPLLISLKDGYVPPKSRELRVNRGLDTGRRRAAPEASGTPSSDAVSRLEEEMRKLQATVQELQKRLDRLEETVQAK
substance,measurement,value
Aurovertin B [AB],Kd,0.352 µM

# Reference: paper PMC11610137, “TRIM4 enhances small-molecule-induced neddylated-degradation of CORO1A for triple negative breast cancer therapy” (Theranostics, 2024)
